This note sets out measurements from ChEMBL document CHEMBL5649167, “The SUV4-20 inhibitor A-196 verifies a role for epigenetics in genomic integrity” (Nat Chem Biol, 2017).

Active and inactive are the calls of the source. The rule behind the calls is not given here.

Assay [1] concerns the target Histone-lysine N-methyltransferase EZH2 (Homo sapiens) (UniProt Q15910). The assay is described as follows: Inhibition of EZH2 (unknown origin) using Biotin-tagged H4K20me1 and [3H-SAM] as substrate at 1 to 10 uM incubated for 2 hrs by scintillation proximity assay. The settings on record: dose 1-10 µM.
In assay [2] the test system is U2OS. Put plainly: Inhibition of H4K20me2 in human U2OS cells at 3 uM incubated for 48 hrs by Western blotting analysis. Format: functional, cell-based. A general note: A western blot detects proteins with antibodies after separation by electrophoresis.
For assay [3], the target named is PRMT5/MEP50 complex (Homo sapiens) (UniProt O14744+Q9BQA1). The assay is described as follows: Inhibition of PRMT5/MEP50 complex (unknown origin) using Biotin-tagged H4K20me1 and [3H-SAM] as substrate at 1 to 10 uM incubated for 2 hrs by scintillation proximity assay. The class given is protein-complex assay. The settings on record: dose 1-10 µM.
Assay [4] has as its target Histone-lysine N-methyltransferase SETD2 (Homo sapiens) (UniProt Q9BYW2). Put plainly: Inhibition of SETD2 (unknown origin) using Biotin-tagged H4K20me1 and [3H-SAM] as substrate at 1 to 10 uM incubated for 2 hrs by scintillation proximity assay. The note with it: dose 1-10 µM. On the technique in general: Scintillation proximity formats need no separation of bound from free tracer.

Assay [5] deals with Serine/threonine-protein kinase TAO2 (Homo sapiens) (UniProt Q9UL54). The assay is described as follows: Inhibition of human TAOK2 at 10 uM relative to control.
Serine/threonine-protein kinase TAO2 (Homo sapiens), sequence (Q9UL54 whole entry): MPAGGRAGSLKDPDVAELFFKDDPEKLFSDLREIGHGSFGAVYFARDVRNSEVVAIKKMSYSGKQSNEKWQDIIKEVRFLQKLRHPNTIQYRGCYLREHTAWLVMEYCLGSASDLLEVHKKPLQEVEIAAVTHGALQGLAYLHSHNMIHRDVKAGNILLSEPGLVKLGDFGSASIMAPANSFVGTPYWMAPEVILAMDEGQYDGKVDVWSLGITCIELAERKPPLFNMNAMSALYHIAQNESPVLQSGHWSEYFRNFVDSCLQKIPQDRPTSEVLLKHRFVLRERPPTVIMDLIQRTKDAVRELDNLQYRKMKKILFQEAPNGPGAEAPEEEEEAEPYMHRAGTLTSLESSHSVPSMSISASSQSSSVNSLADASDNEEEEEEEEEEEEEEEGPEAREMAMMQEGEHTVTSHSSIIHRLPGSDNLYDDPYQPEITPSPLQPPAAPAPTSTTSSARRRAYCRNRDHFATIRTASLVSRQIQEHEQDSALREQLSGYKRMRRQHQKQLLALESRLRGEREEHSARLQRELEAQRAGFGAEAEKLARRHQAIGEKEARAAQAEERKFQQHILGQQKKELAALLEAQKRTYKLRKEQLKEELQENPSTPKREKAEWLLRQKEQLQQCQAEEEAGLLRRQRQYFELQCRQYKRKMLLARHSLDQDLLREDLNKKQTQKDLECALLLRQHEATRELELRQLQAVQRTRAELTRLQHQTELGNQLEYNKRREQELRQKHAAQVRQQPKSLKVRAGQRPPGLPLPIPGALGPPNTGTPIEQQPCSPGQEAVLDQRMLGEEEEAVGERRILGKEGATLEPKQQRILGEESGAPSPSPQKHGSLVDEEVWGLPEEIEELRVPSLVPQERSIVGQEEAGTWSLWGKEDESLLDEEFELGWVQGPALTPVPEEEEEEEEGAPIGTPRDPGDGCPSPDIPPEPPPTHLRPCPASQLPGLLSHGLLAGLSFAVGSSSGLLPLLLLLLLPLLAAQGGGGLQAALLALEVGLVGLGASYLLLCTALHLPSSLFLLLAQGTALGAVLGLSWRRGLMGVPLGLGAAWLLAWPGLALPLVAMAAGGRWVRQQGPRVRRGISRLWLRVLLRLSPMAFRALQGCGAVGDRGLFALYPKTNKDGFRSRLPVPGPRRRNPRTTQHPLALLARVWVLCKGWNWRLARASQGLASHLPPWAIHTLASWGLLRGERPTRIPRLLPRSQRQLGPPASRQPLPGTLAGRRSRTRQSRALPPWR
The target in assay [6] is Protein arginine N-methyltransferase 6 (Homo sapiens) (UniProt Q96LA8). Put plainly: Inhibition of PRMT6 (unknown origin) using Biotin-tagged H4K20me1 and [3H-SAM] as substrate at 1 to 10 uM incubated for 2 hrs by scintillation proximity assay. The note with it: dose 1-10 µM.
Protein arginine N-methyltransferase 6 (Homo sapiens), sequence (Q96LA8 whole entry, looked up): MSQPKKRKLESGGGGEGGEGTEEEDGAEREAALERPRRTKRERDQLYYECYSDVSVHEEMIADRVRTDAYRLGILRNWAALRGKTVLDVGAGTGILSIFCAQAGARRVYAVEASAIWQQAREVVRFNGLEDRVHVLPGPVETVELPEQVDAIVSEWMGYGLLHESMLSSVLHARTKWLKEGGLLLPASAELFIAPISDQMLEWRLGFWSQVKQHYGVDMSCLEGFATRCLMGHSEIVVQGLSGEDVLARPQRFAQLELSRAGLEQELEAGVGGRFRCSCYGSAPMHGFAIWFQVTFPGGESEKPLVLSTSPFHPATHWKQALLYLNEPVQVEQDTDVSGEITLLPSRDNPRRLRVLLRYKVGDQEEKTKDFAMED
In assay [7] the target is Histone-lysine N-methyltransferase SETDB1 (Homo sapiens) (UniProt Q15047). The assay is described as follows: Inhibition of SETDB1 (unknown origin) using Biotin-tagged H4K20me1 and [3H-SAM] as substrate at 1 to 10 uM incubated for 2 hrs by scintillation proximity assay. The note with it: dose 1-10 µM.
The target in assay [8] is 5-hydroxytryptamine receptor 1B (Homo sapiens) (UniProt P28222). The assay is described as follows: Inhibition of human 5-hydroxytryptamine receptor 1B at 10 uM relative to control.
5-hydroxytryptamine receptor 1B (Homo sapiens), sequence (P28222 whole entry): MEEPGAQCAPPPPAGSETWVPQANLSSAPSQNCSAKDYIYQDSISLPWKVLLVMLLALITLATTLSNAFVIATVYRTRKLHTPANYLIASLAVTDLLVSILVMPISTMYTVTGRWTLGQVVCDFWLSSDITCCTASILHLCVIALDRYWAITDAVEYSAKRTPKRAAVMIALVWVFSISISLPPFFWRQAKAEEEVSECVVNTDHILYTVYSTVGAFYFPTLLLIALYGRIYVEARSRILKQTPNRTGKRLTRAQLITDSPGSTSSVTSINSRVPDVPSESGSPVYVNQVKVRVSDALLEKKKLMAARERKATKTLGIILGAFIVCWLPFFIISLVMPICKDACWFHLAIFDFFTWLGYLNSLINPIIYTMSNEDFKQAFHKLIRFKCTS
The target in assay [9] is Protein arginine N-methyltransferase 7 (Homo sapiens) (UniProt Q9NVM4). Put plainly: Inhibition of PRMT7 (unknown origin) using Biotin-tagged H4K20me1 and [3H-SAM] as substrate at 1 to 10 uM incubated for 2 hrs by scintillation proximity assay. The note with it: dose 1-10 µM.
Protein arginine N-methyltransferase 7 (Homo sapiens), sequence (Q9NVM4 whole entry): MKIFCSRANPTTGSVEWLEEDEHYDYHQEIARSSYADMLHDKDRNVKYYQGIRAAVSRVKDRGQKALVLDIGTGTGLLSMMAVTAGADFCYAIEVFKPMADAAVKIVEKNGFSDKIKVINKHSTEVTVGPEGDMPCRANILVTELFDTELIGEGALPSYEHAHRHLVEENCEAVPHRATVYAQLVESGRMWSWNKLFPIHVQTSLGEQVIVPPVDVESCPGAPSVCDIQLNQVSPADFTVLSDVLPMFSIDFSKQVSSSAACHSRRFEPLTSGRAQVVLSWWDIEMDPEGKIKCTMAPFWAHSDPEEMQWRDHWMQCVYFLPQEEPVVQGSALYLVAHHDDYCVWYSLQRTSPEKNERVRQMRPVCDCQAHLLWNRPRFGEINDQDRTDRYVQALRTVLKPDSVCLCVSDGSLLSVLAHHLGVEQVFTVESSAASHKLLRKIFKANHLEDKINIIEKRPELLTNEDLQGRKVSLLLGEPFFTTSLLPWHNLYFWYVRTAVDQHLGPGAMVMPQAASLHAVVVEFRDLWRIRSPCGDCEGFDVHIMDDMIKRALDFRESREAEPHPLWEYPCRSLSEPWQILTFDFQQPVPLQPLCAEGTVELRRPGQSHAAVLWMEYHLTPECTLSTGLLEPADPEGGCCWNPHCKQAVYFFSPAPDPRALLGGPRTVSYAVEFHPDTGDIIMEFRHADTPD
The subject of a further assay is PC-3. Put plainly: Antiproliferative activity against human PC-3 cells assessed as cell population doubling at 1 uM incubated for 80 days. The class given is functional, cell-based. The note with it: time 80.0 day.
In assay [10] the target is Serine/threonine-protein kinase PLK1 (Homo sapiens) (UniProt P53350). Put plainly: Inhibition of human PLK1 at 10 uM relative to control.
Serine/threonine-protein kinase PLK1 (Homo sapiens), sequence (P53350 whole entry): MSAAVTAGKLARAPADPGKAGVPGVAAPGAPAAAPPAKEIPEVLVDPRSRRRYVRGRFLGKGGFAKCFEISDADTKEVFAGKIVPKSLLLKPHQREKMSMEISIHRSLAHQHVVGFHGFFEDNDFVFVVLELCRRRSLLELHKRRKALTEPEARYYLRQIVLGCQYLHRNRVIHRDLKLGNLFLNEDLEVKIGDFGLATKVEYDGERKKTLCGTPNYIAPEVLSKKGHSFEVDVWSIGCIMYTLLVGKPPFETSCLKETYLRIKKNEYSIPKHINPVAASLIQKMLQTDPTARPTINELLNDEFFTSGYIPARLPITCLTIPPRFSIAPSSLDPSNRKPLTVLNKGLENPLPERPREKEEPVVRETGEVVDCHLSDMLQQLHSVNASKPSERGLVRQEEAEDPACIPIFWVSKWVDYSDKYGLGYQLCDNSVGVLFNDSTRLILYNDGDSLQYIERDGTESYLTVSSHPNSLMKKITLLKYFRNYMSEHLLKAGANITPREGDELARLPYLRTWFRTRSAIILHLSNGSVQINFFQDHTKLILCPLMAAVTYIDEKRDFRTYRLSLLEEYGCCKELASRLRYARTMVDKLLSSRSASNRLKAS
For assay [11], the target named is Sodium-dependent dopamine transporter (Homo sapiens) (UniProt Q01959). Put plainly: Inhibition of human DAT in stable HEK cells at 10 uM relative to control. Format: cell-based.
Sodium-dependent dopamine transporter (Homo sapiens), sequence (Q01959 whole entry): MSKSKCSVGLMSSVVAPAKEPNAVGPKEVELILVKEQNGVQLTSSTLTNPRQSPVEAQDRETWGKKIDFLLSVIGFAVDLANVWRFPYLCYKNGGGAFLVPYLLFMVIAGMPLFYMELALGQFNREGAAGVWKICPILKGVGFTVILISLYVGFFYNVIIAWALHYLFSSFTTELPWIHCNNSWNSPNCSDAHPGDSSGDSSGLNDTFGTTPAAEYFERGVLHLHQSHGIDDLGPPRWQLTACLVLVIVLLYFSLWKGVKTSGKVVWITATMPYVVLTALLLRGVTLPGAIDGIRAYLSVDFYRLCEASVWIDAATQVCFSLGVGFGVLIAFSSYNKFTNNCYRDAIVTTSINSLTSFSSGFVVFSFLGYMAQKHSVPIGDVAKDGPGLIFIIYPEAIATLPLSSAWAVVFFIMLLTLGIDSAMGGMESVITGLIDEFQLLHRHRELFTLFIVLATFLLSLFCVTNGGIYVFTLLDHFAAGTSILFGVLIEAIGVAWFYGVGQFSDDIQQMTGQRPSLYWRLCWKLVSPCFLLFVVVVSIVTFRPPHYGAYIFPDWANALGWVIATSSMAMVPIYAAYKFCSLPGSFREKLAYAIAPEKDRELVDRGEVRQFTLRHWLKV
A further assay deals with HL-60. Put plainly: Cytotoxicity against human HL-60 cells assessed as cell viability at 1.5 to 100 uM incubated after 72 hrs. Format: functional, cell-based. The settings on record: dose 1.5-100 µM.
For another assay, the system named is HeLa. Put plainly: Antiproliferative activity against human HeLa cells assessed as cell population doubling at 1 uM incubated for 80 days. Format: functional, cell-based. The settings on record: time 80.0 day.
In assay [12] the target is Mitogen-activated protein kinase 14 (Homo sapiens) (UniProt Q16539). The assay is described as follows: Inhibition of human p38alpha at 10 uM relative to control.
Mitogen-activated protein kinase 14 (Homo sapiens), sequence (Q16539 whole entry): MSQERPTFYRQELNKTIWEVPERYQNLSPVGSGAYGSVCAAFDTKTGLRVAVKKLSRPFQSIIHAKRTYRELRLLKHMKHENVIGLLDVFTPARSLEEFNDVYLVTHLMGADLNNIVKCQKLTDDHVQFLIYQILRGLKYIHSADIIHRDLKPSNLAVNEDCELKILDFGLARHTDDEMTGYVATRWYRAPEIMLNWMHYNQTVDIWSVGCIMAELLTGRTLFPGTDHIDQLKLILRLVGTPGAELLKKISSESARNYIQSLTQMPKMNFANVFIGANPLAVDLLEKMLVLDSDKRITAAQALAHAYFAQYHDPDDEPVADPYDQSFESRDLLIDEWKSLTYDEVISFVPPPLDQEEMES
Assay [13] deals with U2OS. Put plainly: Induction of cell cycle arrest in human U2OS cells assessed as decrease in H4K20me3 in S phase at 0.6 to 6 uM by plot analysis. The class given is functional, cell-based. The note with it: dose 0.6-6 µM.
In assay [14] the target is 3-phosphoinositide-dependent protein kinase 1 (Homo sapiens) (UniProt O15530). Put plainly: Inhibition of human PDK1 at 10 uM relative to control.
Assay [15] deals with Histone-lysine N-methyltransferase SUV39H2 (Homo sapiens) (UniProt Q9H5I1). Put plainly: Inhibition of SUV39H2 (unknown origin) using Biotin-tagged H4K20me1 and [3H-SAM] as substrate at 1 to 10 uM incubated for 2 hrs by scintillation proximity assay. The settings on record: dose 1-10 µM.
Histone-lysine N-methyltransferase SUV39H2 (Homo sapiens), sequence (Q9H5I1 whole entry): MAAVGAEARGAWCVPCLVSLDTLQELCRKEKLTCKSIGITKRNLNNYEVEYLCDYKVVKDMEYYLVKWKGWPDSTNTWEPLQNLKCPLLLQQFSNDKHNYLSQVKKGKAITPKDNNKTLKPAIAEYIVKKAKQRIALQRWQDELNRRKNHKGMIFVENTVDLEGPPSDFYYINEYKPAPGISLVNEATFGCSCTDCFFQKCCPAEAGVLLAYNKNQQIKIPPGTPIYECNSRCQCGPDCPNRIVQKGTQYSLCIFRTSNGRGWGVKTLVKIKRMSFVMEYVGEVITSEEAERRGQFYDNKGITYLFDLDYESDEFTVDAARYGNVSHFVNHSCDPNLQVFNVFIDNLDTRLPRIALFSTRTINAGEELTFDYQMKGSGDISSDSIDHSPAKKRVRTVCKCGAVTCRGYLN
The test system of assay [16] is U2OS. The assay is described as follows: Antiproliferative activity against human U2OS cells assessed as inhibition in H4K20me3 expression level 21 doublings by Western blot analysis. The class given is functional, cell-based.
The subject of assay [17] is U2OS. Put plainly: Antiproliferative activity against human U2OS cells assessed as inhibition in H4K20me2 expression level 21 doublings by Western blot analysis. The class given is functional, cell-based.
The target in assay [18] is 5-hydroxytryptamine receptor 7 (Homo sapiens) (UniProt P34969). The assay is described as follows: Inhibition of human 5-HT7 in stable HEK cells at 10 uM relative to control. The class given is cell-based.
For a further assay, the species on record is Homo sapiens. The assay is described as follows: Inhibition of human GABAA at 10 uM relative to control.

As usually defined, the inhibition is the drop in the measured response relative to a control, in per cent. Turning to `Clc1cc2c(NC3CCCC3)nnc(-c3ccncc3)c2cc1Cl`, the inhibition result in assay [1], in [3], in assay [4], in [6], in assay [7] and in assay [9] was “inactive” in each case. The inhibition entry in [15] was “inactive”. The inhibition result in the assay on U2OS [2] was “Active”. Also, the inhibition is 0% in [5]; 20% in assay [8]; -10% in [10]; -4% in assay [11]; -4% in assay [12]; -7% in [14]. Moreover, the outcome with PC-3, in the assay on HL-60, in the assay with HeLa, in the assay on U2OS [13], in the assay with U2OS [16] and in the assay with U2OS [17] was Active.
`O=C(c1nnc(NC2CCCC2)c2cc(Cl)c(Cl)cc12)N1CCC(O)CC1`: the inhibition in [18] was 19%; in the assay filed under Homo sapiens it was -7%.
